Several values for one entry are separate records, joined by “and”; a condition that tells them apart may be missing. Identical values can stand only once.
Legend:
[1] = UV-Vis absorbance spectra; format: physicochemical; conditions: 25 μM in HBSS buffer with 1% DMSO
Experimental: (§1) Solubility in buffer was explored for all compounds using nephelometry ([Bevan and Lloyd, 2000]) and these studies indicate good solubility of all azobenzene photoswiches up to at least 100 μM (Figure S1). […] For all compounds, 360 nm induces a large change in absorbance spectrum compared with the non-illuminated (dark) compounds (Table 1, Figure 2A, and S1), indicating photoisomerization to the cis-isomer. The absorbance peak (λmax) of Opto-prop-1-3 ranged between 319 and 347 nm for the trans-isomers and between 423 and 429 for the cis-isomers (Table 1), as is typical for azobenzene compounds ([Hauwert et al., 2018]). […] The photochemical conversions were determined by continuous illumination of the Opto-prop compounds with near UV-light (360 ± 20 nm) as 10-mM solutions in DMSO. Based on LCMS analysis, it was observed that all compounds obtained a high level of conversion to the cis-isomer with a photostationary state (PSS) of >88 area % cis-isomer (i.e. PSScis; Table 1). Subsequent back-switching to PSStrans with 434 nm maintained 22–29 area % cis-isomer (Table 1). The thermal relaxation of the PSScis state of the photoswitchable ligands was monitored over time by measuring absorbance at 254 nm. Only minor thermal relaxation to the trans-isomer could be detected at 20°C (not shown). An estimate of the relaxation rate at 20 °C was determined using a method by Priimagi et al. ([Ahmed et al., 2017]), which was performed in Hanks’ balanced salt solution (HBSS) using increased temperatures to enhance the speed of thermal relaxation. The Opto-prop ligands are all very stable as cis-isomer after illumination, with thermal relaxation half-lives of >10 days at 20 °C (See Table 1 and Figure S1).
UV-Vis spectra were obtained using a Thermo-scientific Evolution 201 PC spectrophotometer. Illumination was executed using a Sutter instruments Lambda LS with a 300 Watt full-spectrum lamp connected to a Sutter instruments Lambda 10-3 optical filter changer equipped with 360 ± 20 nm, 400 ± 5 nm, 434 ± 9 nm and 460 ± 5 nm filters. The light intensity is 0.93 mW/mm^2 using the 360 ± 20 nm filter, 0.22 mW/mm^2 using the 400 ± 5 nm filter, 0.79 mW/mm^2 for the 434 ± 9 nm filter and 0.26 mW/mm^2 for the 460 ± 5 nm filter as measured using a Thorlabs PM16-401 power meter.
For the determination of the UV-Vis spectra shown in Figure 2A, compounds (25 μM in 1% DMSO/HBSS buffer) were illuminated in Hellma Suprasil quartz 114-QS cuvettes with either a 360, 400, 434 or 460 nm filter for the indicated time. For the determination of PSScis and PSStrans states by UV spectroscopy (Figures S1D–S1F), a solution of the compound in 1% DMSO/HBSS buffer (25 μM) in a vial was illuminated to PSS cis with 360 nm (typically 4–5 min) and subsequently to PSS trans with 434 nm (typically 2–5 min). UV spectra were recorded.

β2-AR [2] = target: T1, β2-AR (Homo sapiens, UniProt P07550); assay: NanoBiT complementation: mini-Gαs recruitment to β2-AR, Schild analysis
Target sequence in this assay (P07550 whole entry): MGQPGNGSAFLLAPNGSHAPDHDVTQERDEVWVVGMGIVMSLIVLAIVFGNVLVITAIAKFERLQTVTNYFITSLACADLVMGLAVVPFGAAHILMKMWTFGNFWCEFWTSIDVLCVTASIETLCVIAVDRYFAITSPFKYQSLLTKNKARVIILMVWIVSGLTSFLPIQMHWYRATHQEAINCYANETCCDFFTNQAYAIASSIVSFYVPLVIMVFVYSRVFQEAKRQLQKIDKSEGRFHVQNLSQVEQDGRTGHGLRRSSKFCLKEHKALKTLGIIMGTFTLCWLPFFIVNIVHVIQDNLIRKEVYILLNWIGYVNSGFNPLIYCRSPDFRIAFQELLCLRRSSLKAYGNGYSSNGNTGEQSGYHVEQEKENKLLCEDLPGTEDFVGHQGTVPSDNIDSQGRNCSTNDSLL
Experimental: (§2) Mixed stable populations of HEK-β2AR-β-arrestin2, or HEK-β2AR-mGs cells were generated by selection in G418 (0.8 mg^−1) and zeocin (200 μg mL^−1) for 7–10 days, in DMEM, supplemented with 10% fetal bovine serum (FBS; Sigma Aldrich).
(§3) The antagonist affinity (KD) was then estimated by a Schild plot of log [CR-1] against log [B] (the antagonist concentration) using the relationship: Log[CR−1]=Log[B]−LogKD.

β2-AR [3] = target: T1, β2-AR; assay: [3H]DHA radioligand displacement on membranes of HEK293T cells expressing β2-AR; conditions: for Ki: β2-AR
Target sequence in this assay (P07550 whole entry): as above
Experimental: (§4) Membranes of HEK293T-cells transiently expressing the receptor of interest were co-incubated with the tritiated β1/β2-AR antagonist dihydroalprenolol ([^3H]DHA, Figure S2 depicts saturation binding experiments), together with increasing concentrations of the competing unlabeled ligand.
(§5) Two million HEK293T cells were seeded in a 10cm^2 dish and were transiently transfected the next day with 1 μg human β1-AR or the β2-AR plasmid DNA, 4 μg empty pcDEF3 plasmid DNA and 30 μg linear 25 kDa polyethyleneimine (PEI; Polysciences Warrington, USA) in a 150 mM NaCl solution. […] Two days after transfection, cells were resuspended and washed (3 times) with PBS and pelleted by centrifugation steps at 1500 g. After the final centrifugation step, cell pellets were reconstituted into ice-cold Tris-HCl buffer (15 mM, supplemented with 0.3 mM EDTA and 2 mM MgCl2 at pH7.4) and dounce-homogenised by plunging the pestle 10 times with 1,500 rpm (Tamson, the Netherlands). The homogenates were frozen and thawed twice using liquid nitrogen, after which the membranes were isolated using an ultra-centrifuge L70 at 40,000 g (Beckman Coulter, USA). Cell pellets were then washed and reconstituted in ice-cold 20 mM Tris-HCl buffer supplemented with 250 mM Sucrose at pH 7.4. Finally, the membrane samples where homogenized using a 23-gauge needle, snap-frozen with liquid nitrogen and stored until further experimentation at −80 °C. The protein content was determined using a BCA protein assay kit (Thermo Scientific, USA).
(§6) On the day of the experiment 0.25–0.5 μg membranes expressing either the β1-AR or the β2-AR, were co-incubated with [^3H]DHA (Perkin Elmer, USA) and increasing concentrations unlabeled ligand in HBSS buffer (Thermo Scientific, with Ca^2+ and Mg^2+) supplemented with 0.1% BSA for 1 h at 25 °C under gentile agitation. Either a 4 nM or 1 nM concentration of [^3H]DHA was used in combination with membranes expressing either the β1-AR or β2-AR, respectively. Binding reactions were terminated by filtration over a PEI coated GF/C filter (Perkin Elmer) using ice-cold 50 mM Tris-HCl buffer with 500 mM NaCl at pH 7.4. GF/C plates were dried at 52 °C and filter bound [^3H]DHA was quantified by adding 25 μL/well Microscint-O scintillation liquid and counting luminescence using the Wallac Microbeta counter, as described before.
(§7) IC50 values were determined by fitting the concentration-dependent displacement of [^3H]DHA by unlabeled ligands, with a three-parameter sigmoidal model in GraphPad Prism. […] Competition binding graphs represent the pooled data of ≥3 experiments, normalized to the fitted top and bottom of the reference sigmoidal displacement curve of unlabeled DHA.

β1-AR = β1-AR (Homo sapiens, UniProt P08588); assay: [3H]DHA radioligand displacement on membranes of HEK293T cells expressing β1-AR; conditions: for Ki: β1-AR
Experimental: as §4, §5, §6, §7

β2-AR [4] = target: T1, β2-AR; assay: NanoBiT complementation: β-arrestin2 recruitment to β2-AR, Schild analysis
Target sequence in this assay (P07550 whole entry): as above
Experimental: as §2, §3

[5] = Cis-to-trans thermal relaxation, Arrhenius extrapolation; format: physicochemical; conditions: PSScis sample 25 μM in HBSS buffer with 1% DMSO; Arrhenius extrapolation to 20 °C
Experimental: as §1
Cis-to-trans thermal relaxations were performed in the dark at 25 μM of the PSS360 state of the Opto-prop-1, -2 or -3 in HBSS buffer with 1% DMSO at various temperatures (60°C, 70°C and 80°C). Absorbance was repeatedly measured at 320, 320 and 347 nm for Opto-prop-1, -2 or -3, respectively, with 60 s intervals.

[6] = PSScis and PSStrans by LC analysis; format: physicochemical; conditions: LCMS area at isosbestic wavelength
Experimental: as §1
For the determination of PSScis and PSStrans values by LC analysis (Table 1), a solution of the compound in DMSO (10 mM) was illuminated to PSScis with 360 nm and subsequently to PSStrans with 434 nm. PSS aliquots were withdrawn, diluted with MeCN and subjected to LCMS analysis with the corresponding isosbestic points wavelength: 278, 263 and 308 nm for Opto-prop-1-3, respectively.

[7] = Time-resolved light-induced isomerization by 1H NMR and LCMS
From the text: The kinetic properties of light-induced isomer switching were further characterized using these wavelengths. Switching was monitored by ^1H NMR (Figures 2B and 2D) and LCMS (Figures 2C and 2E) analyses in tandem. The ^1H NMR signal of the ortho C-H proton adjacent to the ether function was selected as a clearly resolved signal to quantify the level of isomerization (Figure 2D).
NMR, LC and UV-Vis spectra were plotted in GraphPad Prism 8 and were visualized by fitting the data to a second order polynomial with a smooth function, using 4 neighboring data points. […] For the time-resolved isomerization experiments, integration of the peak areas was performed with Shimadzu and MestreNova software for LC and NMR integration, respectively. The normalized peak areas over time were fitted by non-linear regression in GraphPad Prism 8 using a one-phase exponential model which yields the t1/2 value of the isomerization reaction and the extrapolated PSS (i.e. the asymptote).

β2-AR [8] = target: T1, β2-AR; assay: Conformational β2-AR BRET sensor in HEK293A cells
Target sequence in this assay (P07550 1-369): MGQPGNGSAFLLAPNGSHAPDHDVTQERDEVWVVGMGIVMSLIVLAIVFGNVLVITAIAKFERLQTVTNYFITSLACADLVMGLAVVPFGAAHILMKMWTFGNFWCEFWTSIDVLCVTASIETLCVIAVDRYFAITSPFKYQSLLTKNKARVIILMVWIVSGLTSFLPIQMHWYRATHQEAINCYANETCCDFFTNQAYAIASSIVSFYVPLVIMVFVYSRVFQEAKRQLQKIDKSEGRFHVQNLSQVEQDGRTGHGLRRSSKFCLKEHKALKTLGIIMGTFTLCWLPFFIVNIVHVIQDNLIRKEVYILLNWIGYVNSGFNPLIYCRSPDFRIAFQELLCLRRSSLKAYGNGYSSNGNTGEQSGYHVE
Experimental: The next day, cells were washed with HBSS and incubated with a 1/1000 stock solution of furimazine. […] Wells pre-incubated with 0.1% DMSO/HBSS control were treated with vehicle control.
Raw BRET ratios were defined as acceptor emission/donor emission.
Antagonist pKB values were calculated using the agonist potency and concentration together with the antagonist IC50 values, using the Cheng-Prusoff equation.

[9] = at PSScis, agonist isoprenaline
[10] = fold difference between Ki of trans and Ki at PSScis
[11] = isomer state with higher affinity
[12] = pKi PSScis, illuminated to PSScis (360 nm) before experiment
[13] = pKi trans, without prior illumination (trans-isomer)

β1-AR, sequence (P08588 whole entry): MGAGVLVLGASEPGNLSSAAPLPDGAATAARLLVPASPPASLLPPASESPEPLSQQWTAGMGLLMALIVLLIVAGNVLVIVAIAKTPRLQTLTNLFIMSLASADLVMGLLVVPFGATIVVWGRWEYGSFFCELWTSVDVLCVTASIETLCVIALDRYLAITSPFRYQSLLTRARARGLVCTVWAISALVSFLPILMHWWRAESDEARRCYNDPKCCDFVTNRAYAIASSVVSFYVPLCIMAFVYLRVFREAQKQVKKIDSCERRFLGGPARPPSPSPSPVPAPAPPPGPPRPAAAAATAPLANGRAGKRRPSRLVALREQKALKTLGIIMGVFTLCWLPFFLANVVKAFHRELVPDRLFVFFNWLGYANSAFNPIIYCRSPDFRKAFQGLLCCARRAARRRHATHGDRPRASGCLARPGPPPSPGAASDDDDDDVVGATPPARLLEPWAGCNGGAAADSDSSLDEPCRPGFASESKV

λmax cis ([1]; cis-isomer): 424 nm
λmax trans ([1]; trans-isomer): 319 nm
Kb (β2-AR [2]): 25.1 nM
slope of the Schild-plot, mini-Gαs recruitment (β2-AR [2]; [9]): 1.2
difference in binding affinity β2-AR vs β1-AR (β2-AR [3]; cis-isomer): 1.9 log unit
selectivity in binding β2-AR over β1-AR (β2-AR [3]; cis-isomer (PSScis)): 78 fold
fold Ki trans vs PSScis at β2-AR (β2-AR [3]; [10]): 587 fold
Active state at β2-AR (β2-AR [3]; [11]): cis
Ki (β2-AR [3]; [12]): 2.51 nM
Ki (β2-AR [3]; pKi at PSStrans, at PSStrans (434 nm back-switching)): 31.6 nM
Ki (β2-AR [3]; [13]): 1580 nM
fold Ki trans vs PSScis at β1-AR (β1-AR; [10]): 21 fold
Active state at β1-AR (β1-AR; [11]): cis
Ki (β1-AR; [12]): 200 nM
Ki (β1-AR; [13]): 5010 nM
Kb (β2-AR [4]): 25.1 nM
slope of the Schild-plot, β-arrestin2 recruitment (β2-AR [4]; [9]): 0.9
t1/2 20°C (thermal relaxation of cis-isomer) [5]: >240 h
PSScis (% cis-isomer) ([6]; 10 mM in DMSO after illumination with 360 nm): 92.8 ± 0.4 % cis-isomer
isomerization half-life, 360 nm ([7]; 1H NMR, 10 mM in DMSO-d6): 4 min
isomerization half-life, 434 nm ([7]; 1H NMR, 10 mM in DMSO-d6): 3 min
cis-isomer at PSScis ([7]; 1H NMR, 360 nm, 10 mM in DMSO-d6): 86 mol%
cis-isomer at PSStrans ([7]; 1H NMR, 434 nm, 10 mM in DMSO-d6): 20 mol%
fitted cis-isomer at PSScis ([7]; LCMS, 360 nm): 94%
isomerization half-life to PSScis ([7]; LCMS, 360 nm): 4 min
fitted cis-isomer at PSStrans ([7]; LCMS, 434 nm): 23%
isomerization half-life to PSStrans ([7]; LCMS, 434 nm): 3 min
IC50 (β2-AR [8]): 31.6 nM
Kb (β2-AR [8]): 2 nM
SMILES: CC(C)NCC(O)COc1cccc(N=Nc2ccccc2)c1 (stereo not drawn) [Opto-prop-2]
PSStrans (% cis-isomer) ([6]; 10 mM in DMSO, 360 nm then 434 nm): 26 % cis-isomer and 25.9 ± 0.4 % cis-isomer

— PMC9436767, “Optical control of the β2-adrenergic receptor with opto-prop-2: A cis-active azobenzene analog of propranolol” (iScience, 2022)
